Values after ≈ are worked out from the molar mass of the structure shown. “Also recorded” adds a separate entry of the source. Read-outs that look alike come from different tables or passages of the source.
Key:
[1] = Hepatic microsomal stability, mouse; conditions: for half-life at 1 μM: CD-1, mouse, pH 7.4
[2] = Multidose (three-day) pharmacokinetics in liquid diet in FVB mice; conditions: for concentration at 3 days: FVB, mouse, in vivo
[3] = Hepatic microsome stability, human; assay type: in vitro ADME; conditions: for metabolism in HLM incubations: pooled human liver microsomes, 60 min, with or without CYP inhibitors
Method: (§1) Hepatic microsomal stability assays were performed in two stages. In the first set of experiments, aliquots of the DMSO solute stocks were diluted into ACN and then into assay buffer (PBS, pH 7.4, ±0.05% PS80). Final experimental solute concentrations were 1 μM (0.6% ACN, 0.01% DMSO). Commercially available mouse, rat, or human hepatic microsomes (˜0.5 mg/ml final concentration), and NADPH (1 mM) or PBS were added. The resulting mixture was incubated at 37° C., and aliquots removed at 0, 1, 10, 30 and 60 min, then quenched with ACN containing 2 μM carbamazepine (internal standard). […] Duplicate incubations were run for each time-point. The percentage of solute remaining at the end of the incubation was used to determine solute half-life.
(§2) These were diluted 500-fold into 1 mL of microsomal incubation mixture to yield a final concentration of 1 μM. The incubation mixture was composed of 100 mM phosphate buffer, pH 7.4, and NADPH regenerating system (BD Biosciences NADPH Regenerating System Solutions A & B). This mixture was preincubated at 37° C. for 5 min in an Eppendorf Thermo mixer, and the reaction initiated by addition of 0.5 mg (25 μl of a 20 mg/mL solution) of liver microsomes. Aliquots (100 μl) were withdrawn at 0, 5, 15, 30, and 60 min, and added to 100 μl ACN containing internal standard. […] The percentage of solute remaining at the end of the incubation was used to determine species-specific values of scaled intrinsic clearance, hepatic clearance, and predicted hepatic extraction based upon the calculations below {Obach, 1999 #9097}.
(§3) for which mg microsomal protein/gm liver was 45 for all species, and gm liver/kg body weight were 32 for dog, 88 for mouse, 40 for rat and 25 for human.
(§4) Clh=(Q*Clint,scaled)/(Q+Clint,scaled)
(§5) for which Q was hepatic blood flow; values of 90 ml/min/kg for mouse, 66 ml/min/kg for rat, and 21 ml/min/kg for human were used.
(§6) for which ER estimates the amount of compound cleared during a single pass through the liver (Low ER<0.3, moderate ER 0.3-0.7, high ER>0.7).

[4] = Hepatic microsomal stability, human; conditions: for half-life at 1 μM: pH 7.4
[5] = Hepatic microsomal stability, rat; conditions: for half-life at 1 μM: Sprague-Dawley, rat, pH 7.4
[6] = Hepatic microsome stability, mouse; assay type: in vitro ADME; conditions: mouse liver microsomes
Method: as §1, §2, §3, §4, §5, §6

[7] = tested on: PrP^Sc in dividing ScN2a-cl3 cells; assay type: cell-based, mouse
P-gp (MDR1) = assay: in vitro; conditions: dog, MDCK-MDR1
in vitro = conditions: dog, MDCK-MDR1
[8] = 40 mg/kg, Brain Concentration (Css), three-day dosing in liquid diet, brain
[9] = 40 mg/kg, Plasma Concentration (Css), three-day dosing in liquid diet, plasma
[10] = 80 mg/kg, Brain Concentration (Css), three-day dosing in liquid diet, brain
[11] = 80 mg/kg, Plasma Concentration (Css), three-day dosing in liquid diet, plasma
[12] = 130 mg/kg, Brain Concentration (Css), three-day dosing in liquid diet, brain
[13] = 130 mg/kg, Plasma Concentration (Css), three-day dosing in liquid diet, plasma
[14] = 210 mg/kg, Brain Concentration (Css), three-day dosing in liquid diet, brain
[15] = 210 mg/kg, Plasma Concentration (Css), three-day dosing in liquid diet, plasma
[16] = Table 29, 2-AMT analogs tested for potency, usually n = 3 or more
[17] = cell culture media, plasma or biological fluid
[18] = pH 2 (HCl) buffer, pH 2, simulated gastric fluid
[19] = pH 7.4 (phosphate) buffer, pH 7.4, aqueous buffer

SMILES | half-life at 1 μM ([1]; liver microsomes) [min] | half-life at 1 μM ([1]; mouse liver microsomes) [min] | half-life at 1 μM ([1]; female, liver microsomes) [min] | half-life at 1 μM ([1]; male, liver microsomes) [min] | % remaining after a 60-min incubation, Mouse ([1]; mouse liver microsomes) [%] | concentration at 3 days [2, 8] [µM] | concentration at 3 days [2, 9] [µM] | concentration at 3 days [2, 10] [µM] | concentration at 3 days [2, 11] [µM] | concentration at 3 days [2, 12] [µM] | concentration at 3 days [2, 13] [µM] | concentration at 3 days [2, 14] [µM] | concentration at 3 days [2, 15] [µM] | metabolism in HLM incubations ([3]; 1 μM) | half-life at 1 μM ([4]; both, human, liver microsomes) [min] | % remaining after a 60-min incubation, Human ([4]; human liver microsomes) [%] | half-life at 1 μM ([4]; human, human liver microsomes) [min] | half-life at 1 μM ([4]; human, liver microsomes) [min] | half-life at 1 μM [5] [min] | % remaining after a 60-min incubation, Rat [5] [%] | further results
Cc1cccc(Nc2nc(-c3ccc(-c4ccccc4)cc3)cs2)n1 [IND24, (4-Biphenyl-4-yl-thiazol-2-yl)-(6-methyl-pyridin-2-yl)-amine] | > 60 | > 60 | 290 | 190 | 89 | 8.7 ± 1.46 | 8.19 ± 8.09 | 19.3 ± 2.28 | 5.55 ± 1.18 | 31.8 ± 5.46 | 11.7 ± 4.85 | 37.4 ± 9.06 | 18.9 ± 20.5 | very little metabolism | 1400 | 105 | > 60 | > 60 | > 60 | 90 | Brain concentrations ([2]; female FVB mice, 75 mg/kg, formulations containing 0.125-1.25% (v/v) PEG400): > 8 µM; metabolic stability (in words) ([3]; human liver microsomes): stable; also recorded: excellent stability; half-life at 1 μM ([3]; pH 7.4, human liver microsomes, 1 μM): > 60 min; metabolic stability (in words) [6]: stable; also recorded: excellent stability; half-life at 1 μM ([6]; pH 7.4, 1 μM): > 60 min; EC50 ([7]; AMT analogs tested for potency): 1270 nM; EC50 [7, 16]: 1270 nM
Cc1ccc(Nc2nc(-c3cc(-c4ccccc4)no3)cs2)nc1 [IND33, (5-Methyl-pyridin-2-yl)-[4-(3-phenyl-isoxazol-5-yl)-thiazol-2-yl]-amine] | 99 | > 60 | – | – | 111 | 0.88 ± 0.68 | 0.65 ± 0.38 | 5.39 ± 2.93 | 2.85 ± 1.3 | 30 | 4.74 ± 1.31 | 12.6 ± 8.62 | 14.2 ± 2.09 | – | – | 42 | 54 | 54 | > 60 | 73 | Hepatic Extraction Ratio Mouse ([1]; mouse microsomes): 0.5; Brain Concentration (Css), 130 mg/kg ([2]; three-day dosing in liquid diet, 130 mg/kg, brain): 23.3 ± 13.2 µM; hepatic extraction ratio (ER) ([3]; human liver microsomes): lower to moderate; Hepatic Extraction Ratio Human ([4]; human): 0.7; Hepatic Extraction Ratio Human ([4]; human microsomes): 0.7; Hepatic Extraction Ratio Rat ([5]; rat microsomes): 0.3; t1/2 Rat (extrapolated) ([5]; rat microsomes, * extrapolated): 151* min; hepatic extraction ratio (ER) [6]: lower to moderate; solubility (physchem; FaSSIF): 70 µM (≈ 23.4 µg/mL); solubility (physchem; [17]): 225 µM (≈ 75.2 µg/mL); solubility (physchem; [18]): 1 µM (≈ 0.334 µg/mL); solubility (physchem; [19]): < 1 µM; EC50 ([7]; AMT analogs tested for potency): 940 nM; EC50 [7, 16]: 940 nM; efflux ratio (P-gp (MDR1)): 1.2; Papp A→B (in vitro): 6.8 ×10⁻⁶ cm/s; Papp B→A (in vitro): 8.3 ×10⁻⁶ cm/s
Cc1ccnc(Nc2nc(-c3ccc(-c4ccccn4)s3)cs2)c1 [IND81, (4-Methyl-pyridin-2-yl)-[4-(5-pyridin-2-yl-thiophen-2-yl)-thiazol-2-yl]-amine] | 19 | 19 | 26 | 23 | 10 | – | – | – | – | – | – | – | – | relatively high turnover | 40 | 48 | 52 | 52 | 58 | 48 | solubility (physchem; FaSSIF): 3 µM (≈ 1.05 µg/mL); solubility (physchem; [17]): 207 µM (≈ 72.5 µg/mL); solubility (physchem; [18]): 78 µM (≈ 27.3 µg/mL); solubility (physchem; [19]): < 1 µM; Papp A→B (in vitro): 16 ×10⁻⁶ cm/s; Papp B→A (in vitro): 20.9 ×10⁻⁶ cm/s
C(=N\Nc1ccc(-c2cnco2)cc1)/c1ccncc1 [IND54304, reference compound] | – | – | 34 | 25 | – | – | – | – | – | – | – | – | – | – | 130 | – | – | – | – | – | Hepatic Extraction Ratio Mouse Female ([1]; female mouse microsomes): 0.64; Hepatic Extraction Ratio Mouse Male ([1]; male mouse microsomes): 0.71; hepatic extraction ratio (ER) ([3]; human liver microsomes): low (Low ER<0.3); Hepatic Extraction Ratio Human ([4]; human (mixed) microsomes, gender study): 0.34; Hepatic Extraction Ratio Rat Female ([5]; female rat microsomes): 0.27; Hepatic Extraction Ratio Rat Male ([5]; male rat microsomes): 0.27; hepatic extraction ratio (ER) [6]: moderate (moderate ER 0.3-0.7)

Reference: patent publication US20140329863A1 (priority 2011, published 2014)
